In patent US6962937B2, “Imidazolidine derivatives, their preparation and their use” (Aventis Pharma Deutschland GmbH, priority 2001, dated 2005):
Counter-ions that a name gives are not always drawn.

biological target: T1, interaction between VCAM-1 and VLA-4 (Homo sapiens, UniProt P05556+P13612); experiment: U937/VCAM-1 cell adhesion test (adhesion of U937 cells to hVCAM-1 (1-3)-IgG); type: cell-based; conditions: inhibition of adhesion of human U937 cells (ATCC CRL 1593) to hVCAM-1 (1-3)-IgG
T1 construct: supplied in their natural form as surface molecules on human U937 cells; host or cells: U937 cells (endogenous VLA-4); The partner hVCAM-1(1-3)-IgG was made in house in transfected COS cells (ATCC CRL1651) and used as culture supernatant
T1 sequence (P13612 34-1032): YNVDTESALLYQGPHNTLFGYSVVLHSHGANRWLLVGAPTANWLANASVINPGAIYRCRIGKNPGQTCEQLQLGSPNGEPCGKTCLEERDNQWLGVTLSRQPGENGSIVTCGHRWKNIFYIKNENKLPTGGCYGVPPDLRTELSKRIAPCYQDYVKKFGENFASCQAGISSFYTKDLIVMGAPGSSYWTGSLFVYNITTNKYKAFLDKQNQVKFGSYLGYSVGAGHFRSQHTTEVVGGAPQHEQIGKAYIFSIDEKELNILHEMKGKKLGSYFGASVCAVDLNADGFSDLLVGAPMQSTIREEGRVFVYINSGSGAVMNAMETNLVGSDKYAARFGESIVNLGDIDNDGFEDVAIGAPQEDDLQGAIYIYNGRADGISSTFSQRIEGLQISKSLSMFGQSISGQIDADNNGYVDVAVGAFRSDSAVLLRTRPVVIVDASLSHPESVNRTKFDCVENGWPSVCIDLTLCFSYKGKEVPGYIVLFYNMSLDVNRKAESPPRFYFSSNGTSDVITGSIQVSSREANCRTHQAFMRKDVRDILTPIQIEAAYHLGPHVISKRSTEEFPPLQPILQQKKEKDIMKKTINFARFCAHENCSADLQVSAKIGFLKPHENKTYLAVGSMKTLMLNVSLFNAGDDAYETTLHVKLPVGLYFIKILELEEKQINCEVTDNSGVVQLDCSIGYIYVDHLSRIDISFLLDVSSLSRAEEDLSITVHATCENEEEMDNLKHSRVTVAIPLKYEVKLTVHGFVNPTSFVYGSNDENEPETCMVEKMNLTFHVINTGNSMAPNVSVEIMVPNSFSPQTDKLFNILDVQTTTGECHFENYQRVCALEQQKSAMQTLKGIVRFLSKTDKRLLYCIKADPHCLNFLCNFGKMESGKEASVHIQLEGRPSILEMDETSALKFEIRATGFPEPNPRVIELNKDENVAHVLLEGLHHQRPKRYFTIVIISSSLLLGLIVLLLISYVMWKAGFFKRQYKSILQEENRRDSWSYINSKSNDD
T1 sequence (P05556 21-798): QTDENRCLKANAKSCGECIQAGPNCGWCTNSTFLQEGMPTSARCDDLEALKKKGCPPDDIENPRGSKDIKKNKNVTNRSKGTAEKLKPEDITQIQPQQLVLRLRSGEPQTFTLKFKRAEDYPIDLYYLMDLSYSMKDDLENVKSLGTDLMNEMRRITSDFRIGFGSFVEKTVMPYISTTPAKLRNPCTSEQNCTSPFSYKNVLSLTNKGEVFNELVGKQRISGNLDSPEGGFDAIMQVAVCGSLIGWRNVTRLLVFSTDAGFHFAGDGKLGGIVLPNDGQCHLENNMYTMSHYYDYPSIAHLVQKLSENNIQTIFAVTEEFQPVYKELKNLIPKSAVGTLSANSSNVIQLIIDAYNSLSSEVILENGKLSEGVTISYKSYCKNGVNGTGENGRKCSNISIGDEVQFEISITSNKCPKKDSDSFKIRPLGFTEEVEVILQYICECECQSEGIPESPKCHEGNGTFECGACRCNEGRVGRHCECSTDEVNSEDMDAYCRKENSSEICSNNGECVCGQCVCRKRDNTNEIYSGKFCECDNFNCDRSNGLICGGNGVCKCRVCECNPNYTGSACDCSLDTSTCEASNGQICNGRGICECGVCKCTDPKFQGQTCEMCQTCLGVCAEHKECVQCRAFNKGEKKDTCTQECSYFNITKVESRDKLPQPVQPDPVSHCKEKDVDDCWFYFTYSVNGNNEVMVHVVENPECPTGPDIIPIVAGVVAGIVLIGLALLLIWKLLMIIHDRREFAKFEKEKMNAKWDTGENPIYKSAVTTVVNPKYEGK
Text: A) U937/VCAM-1 Cell Adhesion Test (Assay for Measuring the Adhesion of U937 Cells (ATCC CRL 1593) to hVCAM-1 (1-3)-IqG)
The assay described below which is specific for the interaction between VCAM-1 and VLA-4, is used as the method for testing the activity of the compounds of the formula I on this interaction. The cellular binding partners, that is the VLA-4 integrins, are supplied in their natural form as surface molecules on human U937 cells (ATCC CRL 1593) which belong to the leukocyte group. The specific binding partners employed are recombinantly prepared soluble fusion proteins which consist of the extracytoplasmic domain of human VCAM-1 and the constant region of a human immunoglobulin of the IgG1 subclass.
1. Preparation of Human VCAM-1 (1-3)-IqG and Human CD4-IgG
A gene construct for expressing the extracellular domain of human VCAM-1 linked to the gene sequence for the heavy chain of human immunoglobulin IgG1 (hinge, CH2 and CH3 regions) (from Dr. Brian Seed, Massachusetts General Hospital, Boston, USA; cf. Damle and Aruffo, Proc. Natl. Acad. Sci. USA, 1991, 88:6403) was employed. The soluble fusion protein hVCAM-1 (1-3)-IgG contained the three aminoterminal extracellular immunoglobulin-like domains of human VCAM-1 (Damle and Aruffo, Proc. Natl. Acad. Sci. USA, 1991, 88:6403). CD4-IgG (Zettimeissl et al., DNA and Cell Biology, 1990, 9:347) was used as the fusion protein for negative controls. The recombinant proteins were expressed as soluble proteins following the DEAE/dextran-mediated transfection of DNA into COS cells (ATCC CRL1651) using standard procedures (Ausubel et a., Current protocols in molecular biology, John Wiley & Sons, Inc., 1994).
2. Assay for Measuring the Adhesion of U937 Cells to hVCAM-1 (1-3)-IgG […]
2.6 U937 cells were incubated in Fc receptor blocking buffer for 20 minutes and then pipetted in at a concentration of 1×10^6/mL and in a quantity of 100 μL per well (final volume: 125 μL/well). […]

First: COc1cc(CN2C(=O)N([C@H](CN[C@@H](CC(=O)O)c3ccccc3)CC3CC3)C(=O)C2(C)C)ccc1NC(=O)Nc1ccccc1C [Example 6, (S)-3-((S)-2-(4,4-Dimethyl-3-(4-(3-(2-methylphenyl)ureido)-3-methoxybenzyl)-2,5-dioxoimidazolidin-1-yl)-3-cyclopropylpropylamino)-3-phenylpropionic acid hydrochloride]
Second: COc1cc(CN2C(=O)N([C@H](CN[C@@H](CC(=O)O)c3ccc4c(c3)OCO4)CC3CC3)C(=O)C2(C)C)ccc1NC(=O)Nc1ccccc1C [Example 17, (S)-3-((S)-2-(4,4-Dimethyl-3-(4-(3-(2-methylphenyl)ureido)-3-methoxybenzyl)-2,5-dioxoimidazolidin-1-yl)-3-cyclopropylpropylamino)-3-(3,4-methylenedioxyphenyl)propionic acid hydrochloride]
The IC50 of the first is 2.7-fold higher: 66.2 nM for the first, 24.4 nM for the second.

With COc1cc(CN2C(=O)N([C@H](CN[C@@H](CC(=O)O)c3ccc(OC)c(OC)c3)CC3CC3)C(=O)C2(C)C)ccc1NC(=O)Nc1ccccc1C [Example 14, (S)-3-((S)-2-(4,4-Dimethyl-3-(4-(3-(2-methylphenyl)ureido)-3-methoxybenzyl)-2,5-dioxoimidazolidin-1-yl)-3-cyclopropylpropylamino)-3-(3,4-dimethoxyphenyl)propionic acid hydrochloride] the IC50 was 8.2 nM.
